Experiments:
mouse GLP-1R = target: T1, mouse GLP-1R (Mus musculus, UniProt O35659); test: Agonistic activity on GLP-1R of different species (LANCE Ultra cAMP assay): mouse; assay type: cell-based; conditions: ratio of EC50 value of other species to human EC50 value
T1 construct: expressed in transfected cells
T1 sequence (O35659 22-463): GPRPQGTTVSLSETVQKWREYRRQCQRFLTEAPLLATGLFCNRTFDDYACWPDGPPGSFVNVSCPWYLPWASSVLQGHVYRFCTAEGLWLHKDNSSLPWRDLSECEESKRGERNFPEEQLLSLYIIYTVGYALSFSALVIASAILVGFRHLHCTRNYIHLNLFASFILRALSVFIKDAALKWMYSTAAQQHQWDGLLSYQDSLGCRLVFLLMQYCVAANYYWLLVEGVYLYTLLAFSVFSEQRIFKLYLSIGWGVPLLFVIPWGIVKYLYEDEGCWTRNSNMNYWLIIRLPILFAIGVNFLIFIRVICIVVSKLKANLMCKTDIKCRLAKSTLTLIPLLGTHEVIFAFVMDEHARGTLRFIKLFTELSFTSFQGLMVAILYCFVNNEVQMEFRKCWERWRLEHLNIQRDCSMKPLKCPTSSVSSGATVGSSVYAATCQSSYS

dog GLP-1R = target: T2, dog GLP-1R (Canis lupus familiaris, UniProt A0A8I3NUR9); test: Agonistic activity on GLP-1R of different species (LANCE Ultra cAMP assay): dog; assay type: cell-based; conditions: ratio of EC50 value of other species to human EC50 value
T2 construct: expressed in transfected cells
T2 sequence (A0A8I3NUR9 1-464): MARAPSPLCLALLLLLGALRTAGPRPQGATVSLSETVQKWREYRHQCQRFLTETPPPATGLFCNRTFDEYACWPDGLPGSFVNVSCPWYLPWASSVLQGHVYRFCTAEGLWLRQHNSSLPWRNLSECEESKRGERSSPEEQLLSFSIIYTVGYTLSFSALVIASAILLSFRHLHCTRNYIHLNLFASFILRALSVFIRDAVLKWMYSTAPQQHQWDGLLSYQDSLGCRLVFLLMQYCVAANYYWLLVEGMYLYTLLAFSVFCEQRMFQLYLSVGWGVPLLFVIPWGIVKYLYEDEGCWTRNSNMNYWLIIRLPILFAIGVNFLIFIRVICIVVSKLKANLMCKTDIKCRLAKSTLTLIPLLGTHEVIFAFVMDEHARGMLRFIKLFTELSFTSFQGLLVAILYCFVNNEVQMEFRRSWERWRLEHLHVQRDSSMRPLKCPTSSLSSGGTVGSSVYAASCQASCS
Protocol: The in vitro agonistic activity of the compound of the present invention on GLP-1R was measured in cells stably expressing human, dog, mouse, rat, rabbit, and monkey GLP-1R (human GLP-1R-HEK, dog GLP-1R-HEK, mouse GLP-1R-HEK, rat GLP-1R- in HEK, rabbit GLP-1R-CHO, monkey GLP-1R-HEK cells). Human GLP-1R-HEK, dog GLP-1R-HEK, mouse GLP-1R-HEK, rat GLP-1R-HEK, rabbit GLP-1R-CHO, and monkey GLP-1R-HEK cells were resuspended in 1×Casein Stimulation Buffer (HBSS, 5 mM HEPES, 0.5 mM IBMX, 0.1% casein, pH7.4), and seeded into a 384-well cell culture plate at 9 µL/well (cell numbers being 1000, 1000, 1000, 1500, 1000, 1000 cells/well, respectively). 1 µL of 1×Casein Stimulation Buffer containing 10× compound was added to the above-mentioned 384-well cell culture plate. The plate was incubated at 37 °C for 30 minutes. After the incubation was completed, 5 µL of Eu-cAMP working solution and 5 µL of Ulight^TM-cAMP working solution were added sequentially, centrifuged and then incubated at room temperature for 1 hour. The readings at 665 nm and 620 nm were determined with a 330 nm excitation light on a microplate reader. The 665 nm/620 nm reading ratio was calculated. […] GraphPad was used to perform nonlinear regression according to the response percentage and the concentration of the compound added to obtain the EC50 value for each compound.

obese dogs = test: Weight loss efficacy in obese dogs; assay type: in vivo; conditions: for SFV, change rate in abdominal fat indicators / TFV, change rate in abdominal fat indicators / VFV, change rate in abdominal fat indicators / rSFV, change rate in abdominal fat indicators / rVFV, change rate in abdominal fat indicators: Mean±SEM
Protocol: In this study, the compound of the present invention was administered subcutaneously to obese dogs multiple times to detect changes in their body weights and elucidate the weight loss effect of the compound. Obese dogs aged 8 months or older with a body condition score (BCS) ≥6 were used in this study. The dogs were housed in appropriately sized cages under controlled environmental conditions with a room temperature of 20-26°C and a relative humidity of 40%-70%, and had free access to food and water. Experimental dogs with similar body weights and BCSs (body weight: 15~24 kg, BCS: 6~9) were randomly divided into four groups (n=6 per group): G1, G2, G3, and G4. Group G1 served as the vehicle control group. […] For Group G2 obese dogs, the first dose (4 nmol/kg) was administered on Day 1 (D1) and Day 8 (D8), adjusted to the second dose (6 nmol/kg) on Day 15 (D15), and further adjusted to the third dose ([…]) on Day 22 (D22), which third dose (96 nmol/kg) was maintained for the subsequent administrations on Day 29 (D29) and Day 36 (D36). For Group G3 obese dogs, the first dose (12 nmol/kg) was administered on D1 and D8, adjusted to the second dose (19 nmol/kg) on D15, and further adjusted to the third dose ([…]) on D22, which third dose (385 nmol/kg) was also maintained for the subsequent administrations on D29 and D36. For Group G4 dogs, the positive control Dirlotapide was administered orally at a dose of 0.5 mg/kg once per day (QD) for 42 consecutive days.
After administration, the body weights of dogs in Group G4 receiving Dirlotapide were measured at a fixed time once daily, while the body weights of dogs in the other groups (G1, G2, and G3) were measured at a fixed time once every 7 days. Food intake was measured once per day after administration. Blood tests for routine and biochemical parameters were conducted before grouping and on D43. Imaging examinations of abdominal fat volume were performed before grouping and from D43 to D45 to measure total abdominal fat volume (TFV) and visceral abdominal fat volume (VFV), and to calculate subcutaneous abdominal fat (SFV). Body condition score (BCS), body mass index (BMI), and abdominal circumference (AC) were measured once a week. The data were statistically analyzed using ANOVA. If ANOVA was statistically significant (p < 0.05) and variances were homogeneous, Tukey's test was used for intergroup comparison. If variances were heterogeneous, Dunnet's T3 test was used. Results were expressed as mean ± standard error of the mean (Mean ± SEM). The significance level was set at 0.05, and both statistical and biological significance were considered in the analysis.

[1] = D43, 4/6/96 nmol/kg s.c. QW, six administrations
[2] = D43, 12/19/385 nmol/kg s.c. QW, six administrations

With `CC[C@H](C)[C@H](NC(=O)C(C)(C)NC(=O)[C@H](Cc1ccc(O)cc1)NC(=O)[C@H](CC(=O)O)NC(=O)[C@H](CO)NC(=O)[C@@H](NC(=O)C(C)(Cc1ccccc1)NC(=O)[C@@H](NC(=O)CNC(=O)[C@H](CCC(=O)O)NC(=O)C(C)(C)NC(=O)[C@@H](N)Cc1ccc(O)cc1)[C@@H](C)O)[C@@H](C)O)C(=O)NC(C)(C)C(=O)N[C@@H](CC(C)C)C(=O)N[C@@H](CC(=O)O)C(=O)N[C@@H](CCCCN)C(=O)N[C@@H](CCC(N)=O)C(=O)N[C@@H](C)C(=O)N[C@@H](CCC(N)=O)C(=O)N[C@@H](C)C(=O)N[C@@H](CCC(=O)O)C(=O)N[C@@H](Cc1ccccc1)C(=O)N[C@H](C(=O)N[C@@H](CCCCNC(=O)COCCOCCNC(=O)COCCOCCNC(=O)COCCOCCNC(=O)CC[C@H](NC(=O)CCCCCCCCCCCCCCCCCCCCC(=O)O)C(=O)O)C(=O)N[C@@H](Cc1c[nH]c2ccccc12)C(=O)N[C@@H](CC(C)C)C(=O)N[C@@H](CC(C)C)C(=O)N[C@@H](CCCCN)C(=O)NCC(=O)NCC(=O)N1CCC[C@H]1C(=O)N[C@@H](CO)C(=O)N[C@@H](CO)C(=O)NCC(=O)N[C@@H](C)C(=O)N1CCC[C@H]1C(=O)N1CCC[C@H]1C(=O)N1CCC[C@H]1C(=O)N[C@@H](CO)C(=O)N[C@@H](CCCCN)C(N)=O)C(C)C` (stereo partly drawn) [Compound P016] the “GLP-1R EC50 ratio” value (mouse GLP-1R) was 1.09, the “GLP-1R EC50 ratio” value (dog GLP-1R) was 4.52 and the “SFV, change rate in abdominal fat indicators” value (obese dogs; [1]) was -18.11±4.49. The “TFV, change rate in abdominal fat indicators” value (obese dogs; [1]) was -16.16±5.88, the “VFV, change rate in abdominal fat indicators” value (obese dogs; [1]) was -10.81±10.19 and the “rSFV, change rate in abdominal fat indicators” value (obese dogs; [1]) was 4.80±6.52. For the same molecule, the “rVFV, change rate in abdominal fat indicators” value (obese dogs; [1]) was -1.51±3.56, the “SFV, change rate in abdominal fat indicators” value (obese dogs; [2]) was -15.14±4.56 and the “TFV, change rate in abdominal fat indicators” value (obese dogs; [2]) was -13.00±4.47. For the same molecule, the “VFV, change rate in abdominal fat indicators” value (obese dogs; [2]) was -9.42±5.39, the “rSFV, change rate in abdominal fat indicators” value (obese dogs; [2]) was 4.19±4.19 and the “rVFV, change rate in abdominal fat indicators” value (obese dogs; [2]) was -2.41±2.12. The “effective dose for weight loss” value (obese dogs; s.c. QW escalating doses) was 96 nmol/kg, the “effective dose for weight loss” value (obese dogs; s.c. QW escalating doses, equivalent of the nmol/kg dose) was 0.5 mg/kg and the maximum weight loss (obese dogs; s.c. QW escalating doses, six administrations) was 9.51%.
